Here are results for four molecules from publication PMC9999251, “Pyrazole-based lamellarin O analogues: synthesis, biological evaluation and structure–activity relationships” (RSC Advances, 2023).

The test system of data set [1] is HCT116 cells. Kind of data set: Cell viability (MTT assay), HCT116. Format: cell-based. The conditions noted are these: Homo sapiens, HCT-116, 96 h treatment, read-out: GI50 ± SD HCT116. Here is the method: (§1) SW480 (human colon adenocarcinoma, adherent, epithelial, ATCC number: CCL-228), HT29 (human colon adenocarcinoma, adherent, epithelial, ATCC number: HTB-38), and HCT116 (human colon adenocarcinoma, adherent, epithelial-like, ATCC number: CCL-247) cells were maintained in RPMI-1640 medium (Sigma-Aldrich). Medium was supplemented with heat-inactivated FBS (Biowest), penicillin–streptomycin (Sigma; with 10 000 units penicillin and 10 mg streptomycin per mL in 0.9% NaCl) and L-glutamine (Sigma; 200 mM solution). Cell cultures were cultivated at 37 °C, maintaining a humidified atmosphere consisting of 5% CO2. Gibco™ trypsin–EDTA (0.05%) was used for cell passage.
(§2) To evaluate cell viability, SW480, HT29, and HCT116 cells were harvested from culture flasks by trypsinization and seeded into 96-well plates in 4000 cells per well, 3000 cells per well and 4000 cells per well densities, respectively. After 24 h preincubation period, cells were treated in triplicates with nine different doses of each compound (6a–o and 7a–c) for 96 h. After treatment compound solutions were replaced with MTT solution (MTT reagent in PBS, […]) diluted in a 6 : 1 ratio in non-supplemented RPMI-1640 medium and were additionally incubated for 2 h. After incubation, the medium was removed, and formazan product was dissolved in DMSO. Optical densities were measured at 550 nm with TECAN Infinite® M200 PRO microplate reader using a reference wavelength of 690 nm to correct unspecific absorption. The quantity of viable cells was normalized to untreated controls. The GI50 values were calculated from dose–response curves.

Data set [2] concerns HT29 cells. Kind of data set: Cell viability (MTT assay), HT29. The class given is cell-based. The conditions noted are these: Homo sapiens, HT-29, 96 h treatment, read-out: GI50 ± SD HT29. Here is the method:
as §1, §2
For orientation: Tetrazolium assays rely on reduction of a dye to a coloured formazan, in cell work by metabolically active cells.

The test system of data set [3] is SW480 cells. Kind of data set: Cell viability (MTT assay), SW480. The class given is cell-based. The conditions noted are these: Homo sapiens, SW480, 96 h, 96 h treatment, read-out: GI50 ± SD SW480. Here is the method: as §1, §2
A short description of data set [4]: Determination of HPLC–log P. Format: physicochemical. The conditions noted are these: reversed-phase HPLC on apHera C18 column; methanol / 0.01 M phosphate buffer pH 7.4; mean ± SD. Here is the method:
HPLC–log P values were determined using Shimadzu HPLC system equipped with apHera C18 column (10 × 6 mm, 5 μm, Supelco, Bellefonte, PA, USA). Each sample was dissolved in the internal standard mixture, consisting of triphenylene (99.9%, Carl Roth) and toluene (≥98%, Sigma-Aldrich). Analysis was performed at 1.5 mL min^−1 flow rate in the linear gradient where mobile phase consisted of methanol and 0.01 M phosphate buffer (pH 7.4). The HPLC–log P values were calculated from the measured retention times using previously published equation.[57]

Another data set concerns the target T1, human serum albumin (Homo sapiens, UniProt P02768).
T1 construct: purchased Chiral Technologies, DAICEL Group, Europe SAS, France CHIRALPAK®HAS (50 × 3 mm, 5 μm)
Kind of data set: Plasma protein binding (PPB), HPLC on albumin-bound stationary phase. The class given is in vitro ADME. The conditions noted are these: pH 7.4, binding to human serum albumin, HPLC method. Here is the method: Retention times of the analytes were measured with Shimadzu HPLC system on the CHIRALPAK®HAS stationary phase (50 × 3 mm, 5 μm, Chiral Technologies, DAICEL Group, Europe SAS, France). The mobile phase A consisted of 50 mM aqueous ammonium acetate buffer (pH 7.4) and phase B of 2-propanol according to Valko et al.[65] Analysis was performed at prolonged 1 mL min^−1 flow rate in the linear gradient. Retention capacity factors (k′) were calculated by using DMSO or a substance with 0% HAS binding for systems' dead time (Rt0). The system was calibrated by injecting the reference compounds: acetylsalicylic acid (CAS 69-72-7), betamethasone (CAS 378-44-9), budesonide (CAS 5133-22-3), carbamazepine (CAS 298-46-4), cimetidine (CAS 51481-61-9), ciprofloxacin (CAS 85721-33-1), indomethacin (CAS 53-86-1), isoniazid (CAS 54-85-3), metronidazole (CAS 443-48-1), nicardipine (CAS 55985-32-5), nizatidine (CAS 76963-41-2) and warfarin (CAS 81-81-2) obtained from Sigma-Aldrich, diclofenac (CAS 15307-86-5) from EMD Chemicals Inc., flumazenil (CAS 78755-81-4) from ABX and ketoprofen (CAS 22071-15-4) from LKT Labs. The logarithmic capacity factors of the references' Rt (log(k′)) on the HSA column were plotted against the %PPB values from literature. The slope and the intercept were used to convert the log(k′) of the compounds (6a, c, f, h, m–o) to %PPB using the regression equation.[66]

Data set [5] relates to HCT116 cells. In words: Cell cycle distribution by flow cytometry (FACS). Format: cell-based, human. To be noted: HCT116, 72 h, lowest concentration of 5 μM; for G2/M phase: negative control 14.2 ± 1.1%; for G1 phase: negative control 49.5 ± 1.8%. Here is the method:
HCT116 cells (40 000 cells per well) were treated with the test compounds (6c, 6m) for 72 h in the concentration range of 5, 10 and 20 μM. After treatment cells were washed with DPBS (Sigma; modified, without calcium chloride and magnesium chloride) and trypsinized using a trypsin–EDTA solution (Gibco™, 0.05%). After additional washing with DPBS, cells were stained at +4 °C overnight using PI/HFS solution (50 μg mL^−1).[67] Samples were then analysed using Guava® easyCyte™ 8HT (Merck Millipore) flow cytometer with Guava Clean 3.1 software. The amount of debris was in the range of 9.2 ± 2.0%.

Data set [6] has as its system HCT116 cells. Kind of data set: Viability staining via Calcein AM/Hoechst/PI, HCT116. Format: cell-based, human. The conditions noted are these: 20 µM, 24 h (Fig. S134 legend), method block: 4 μM, 96 h. Here is the method: (§3) SW480, HT29 and HCT116 cells were seeded in 24-well plates in a cell density of 6000 cells per well and settled for 24 h. […] Cells were stained with propidium iodide (Sigma Aldrich, final concentration 2 μg mL^−1) and Hoechst 33342 (ThermoFisher Scientific, final concentration 0.5 μM) for 60 min and with Calcein AM (Merck, BioReagent, final concentration 50 μM) for 15 min, washed two times with PBS and finally covered with PBS for further analysis. Fluorescence microscopic evaluation was performed on a Evos FL Cell Imaging System (ThermoFisher Scientific).

Data set [7] has as its system SW480 cells. Kind of data set: Viability staining via Calcein AM/Hoechst/PI, SW480. The class given is cell-based, human. The conditions noted are these: 20 µM, 24 h (Fig. S135 legend), method block: 4 μM, 96 h. Here is the method: as §3
In data set [8] the test system is HT29 cells. Kind of data set: Viability staining via Calcein AM/Hoechst/PI, HT29. Format: cell-based, human. The conditions noted are these: 20 µM, 24 h (Fig. S136 legend), method block: 4 μM, 96 h. Here is the method: SW480, HT29 and HCT116 cells were seeded in 24-well plates in a cell density of 6000 cells per well and settled for 24 h. Afterwards cells were treated with 4 μM of test compounds 6a, c, f, h, m–o for 96 h. Cells were stained with propidium iodide (Sigma Aldrich, final concentration 2 μg mL^−1) and Hoechst 33342 (ThermoFisher Scientific, final concentration 0.5 μM) for 60 min and with Calcein AM (Merck, BioReagent, final concentration 50 μM) for 15 min, washed two times with PBS and finally covered with PBS for further analysis. Fluorescence microscopic evaluation was performed on a Evos FL Cell Imaging System (ThermoFisher Scientific).

For the next data set, the system named is SW620. Details: method as in PMID 24979269. The conditions noted are these: SW620 colorectal cancer cells; read-out: IC50 cytotoxicity; cited from earlier work.
The subject of the next data set is SW620/Ad300. Details: method as in PMID 24979269. To be noted: SW620/Ad300 multi-drug resistant daughter cell line; read-out: IC50 cytotoxicity; cited from earlier work.

T1 sequence (P02768 25-609): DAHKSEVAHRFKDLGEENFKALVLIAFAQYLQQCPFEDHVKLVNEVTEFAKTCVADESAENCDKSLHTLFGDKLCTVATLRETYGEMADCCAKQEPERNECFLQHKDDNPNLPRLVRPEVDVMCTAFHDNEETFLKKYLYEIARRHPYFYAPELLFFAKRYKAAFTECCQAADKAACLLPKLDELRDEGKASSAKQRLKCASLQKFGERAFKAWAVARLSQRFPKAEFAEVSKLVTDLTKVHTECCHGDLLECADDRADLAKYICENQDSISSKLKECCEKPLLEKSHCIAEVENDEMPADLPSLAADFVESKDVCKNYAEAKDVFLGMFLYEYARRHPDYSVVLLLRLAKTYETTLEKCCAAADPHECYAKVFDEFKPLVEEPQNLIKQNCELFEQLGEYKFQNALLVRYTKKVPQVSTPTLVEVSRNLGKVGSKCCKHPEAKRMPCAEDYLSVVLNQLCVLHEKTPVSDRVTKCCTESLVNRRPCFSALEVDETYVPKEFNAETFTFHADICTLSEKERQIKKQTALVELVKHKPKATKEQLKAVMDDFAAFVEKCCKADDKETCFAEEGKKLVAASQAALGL

Turning to `CCOC(=O)c1c(-c2ccccc2)c(-c2ccccc2)nn1CC(=O)c1ccc(F)cc1` [Compound 6c, Ethyl 1-[2-(4-fluorophenyl)-2-oxoethyl]-3,4-diphenyl-1H-pyrazole-5-carboxylate], the melting point (commonly the temperature, or range, at which the solid turns liquid) is 114 to 115 °C. In the data set on HCT116 cells [1], the 50% growth inhibitory concentration (GI50) (in general, the concentration at which growth is held to half of that of the control) is 1.96 ± 0.266 µM. Moreover, the GI50 in the data set with HT29 cells [2] came out at 4.98 ± 2.62 µM. The concentration for 50% growth inhibition (GI50) in the data set on SW480 cells [3] was determined as 5.52 ± 3.72 µM. For the same molecule, in data set [4], the chromatographic logP (in general, lipophilicity estimated from chromatographic retention) stood at 4.453 ± 0.005. On human serum albumin, the fraction unbound (commonly the share of the substance not bound to proteins or other matrix) was 0.04. In the data set on HCT116 cells [5], the G2/M phase amounted to 25.0 ± 0.5% and the G1 phase is listed as 63.2 ± 1.4%. Also, in the data set on HCT116 cells [6], the “PI staining (necrosis)” value is reported as “no involvement of necrosis”. Moreover, in the data set with SW480 cells [7], the “PI staining (necrosis)” value is listed as “no involvement of necrosis”. Moreover, the “PI staining (necrosis)” value in the data set on HT29 cells [8] is reported as “no involvement of necrosis”.
On to `CCOC(=O)c1c(-c2ccccc2)c(-c2ccc(F)cc2)nn1CC(=O)c1ccc(F)cc1` [Compound 6m, Ethyl 3-(4-fluorophenyl)-1-[2-(4-fluorophenyl)-2-oxoethyl]-4-phenyl-1H-pyrazole-5-carboxylate], for which the melting point fell in the range of 104 to 105 °C. For the same molecule, the GI50 with HCT116 cells [1] is 1.46 ± 0.247 µM. For the same molecule, in the data set with HT29 cells [2], the GI50 was 2.69 ± 0.11 µM. Further, the GI50 with SW480 cells [3] came to 1.44 ± 0.173 µM. For the same molecule, the chromatographic logP in data set [4] is 4.545 ± 0.006. Also, the fraction unbound at human serum albumin was 0.034. In addition, in the data set with HCT116 cells [5], the G2/M phase was found to be 26.9 ± 0.8% and the G1 phase was found to be 61.0 ± 1.8%. The “PI staining (necrosis)” value in the data set with HCT116 cells [6] is “no involvement of necrosis”. In addition, the “PI staining (necrosis)” value in the data set with SW480 cells [7] is reported as “no involvement of necrosis”. Moreover, in the data set on HT29 cells [8], the “PI staining (necrosis)” value was “no involvement of necrosis”.
In the case of `CCOC(=O)c1c(-c2ccc(F)cc2)c(-c2ccc(F)cc2)nn1CC(=O)c1ccc(F)cc1` [Compound 6o, Ethyl 3,4-bis(4-fluorophenyl)-1-[2-(4-fluorophenyl)-2-oxoethyl]-1H-pyrazole-5-carboxylate], the melting point lay in the range of 105 to 106 °C. Further, in the data set on HCT116 cells [1], the GI50 is 2.36 ± 0.039 µM. The GI50 with HT29 cells [2] came out at 6.67 ± 2.12 µM. The GI50 in the data set on SW480 cells [3] came out at 2.09 ± 0.032 µM. The molecule further gave a chromatographic logP in data set [4] of 4.598 ± 0.004. Moreover, the fraction unbound on human serum albumin was 0.029.
Take `COC(=O)c1c(-c2ccc(O)cc2)c(-c2ccc(O)cc2)cn1CC(=O)c1ccc(OC)cc1` [Lamellarin O]: the IC50 (as a rule, the concentration that gives 50% inhibition) in the data set on SW620 was 20 µM; with SW620/Ad300 it was 22.3 µM.
